Earlier results on 3 compounds are cited in US10709751B2, “Chardonnay grape seed extract” (SHAKLEE CORPORATION, priority 2014, dated 2020).

For data set [1] the following is noted: laboratory studies.
Another data set has as its system neurons. Particulars: laboratory studies.

For the compound `Oc1cc(O)c2c(c1)O[C@H](c1ccc(O)c(O)c1)[C@H](O)C2` [epicatechin], in data set [1], the “crossing of the blood-brain barrier” value is listed as “cross the blood-brain barrier”.

For chlorogenic acids, the “growth and development of neurons” value with neurons was “stimulate growth and development of neurons”.

Turning to `COc1cc(/C=C/c2ccc(O)cc2)cc(OC)c1` [pterostilbene], in data set [1], the “crossing of the blood-brain barrier” value is on record as “cross the blood-brain barrier”.
